Data set [1] has as its target T1, GAβ-dependent amyloid fibril formation (Human Aβ1-40 + GM1-containing liposome) (Homo sapiens, UniProt P05067).
T1 construct: Human Aβ1-40 (cat. #4307-v, prepared by Peptide Institute); purchased Peptide Institute 4307-v
Put plainly: Thioflavin T (ThT) assay of GAβ-dependent amyloid fibril formation (Aβ1-40 with GM1-containing liposome). The format is biochemical. The essentials:
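Human Aβ1-40 (75 μM stock) pre-incubated 10 min at room temperature with compound (75 or 15 μM solution), then GM1-containing cholesterol/sphingomyelin liposome added and incubated 37° C, 18 hours. Fibrils quantified by ThT fluorescence (ex 430/em 490 nm, pH 8.5 glycine buffer); inhibition as ratio to compound-free control.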

[2] abbreviates: inhibition rate against amyloid fibril formation, final concentration of the compound 25 μM, read-out: Inhibitory activity ABC evaluation.
[3] abbreviates: @25 μM, read-out: ThT Inhibitory activity (% inhibition).

The source of these data is US10538516B2, “Oxadiazole derivative and pharmaceutical containing same” (National Center for Geriatrics and Gerontology, priority 2015, dated 2020).

Like-named read-outs stand apart in the source and are kept apart here.

T1 sequence (P05067 672-711 limits assumed): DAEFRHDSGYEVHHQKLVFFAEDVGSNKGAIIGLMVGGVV

Broadly, the melting point is the temperature of the solid-liquid transition. `CCCN(C(=O)CCc1nc(-c2ccc(OC)cc2)no1)c1cccc(Cl)c1` [Compound 2, N-(3-chlorophenyl)-3-{3-(4-methoxyphenyl)-1,2,4-oxadiazol-5-yl}-N-propylpropanamide] had a melting point of 85 °C. Further, in data set [1] (setting [2]), the inhibition at 25 µM was 40 to 80%.
The matching figures for `COc1ccc(-c2noc(CCC(=O)N(CCO)c3cccc(Cl)c3)n2)cc1` [Compound 3, N-(3-chlorophenyl)-N-(2-hydroxyethyl)-3-{3-(4-methoxyphenyl)-1,2,4-oxadiazol-5-yl}propanamide]: 95 °C and less than 40%.
The matching figures for `COc1ccc(-c2noc(CCC(=O)N(CCCO)c3cccc(Cl)c3)n2)cc1` [Compound 6, N-(3-chlorophenyl)-N-(3-hydroxypropyl)-3-{3-(4-methoxyphenyl)-1,2,4-oxadiazol-5-yl}propanamide]: 80 °C and 40 to 80%.
The matching figures for `CCCN(C(=O)Cc1nc(-c2ccc(OC)cc2)no1)c1cccc(Cl)c1` [Compound 1, N-(3-chlorophenyl)-2-{3-(4-methoxyphenyl)-1,2,4-oxadiazol-5-yl}-N-propylacetamide]: 108 °C and less than 40%.
For the molecule `COc1ccc(-c2noc(CCC(=O)Nc3cc(Cl)ccn3)n2)cc1` [Compound 4, N-(4-chloropyridin-2-yl)-3-{3-(4-methoxyphenyl)-1,2,4-oxadiazol-5-yl}propanamide], the melting point turned out to be 167 °C. The inhibition at 25 µM in data set [1] (setting [2]) was less than 40%.
Regarding `COc1ccc(CN2CC(c3nc(-c4ccc(OC(F)(F)F)cc4)no3)CC2=O)cc1` (centres unmarked) [Compound 50, 1-(4-methoxybenzyl)-4-[3-{4-(trifluoro-methoxy)phenyl}-1,2,4-oxadiazol-5-yl] pyrrolidin-2-one], the inhibition at 25 µM in data set [1] (setting [2]) lay in the range of 40 to 80%.
Turning to `O=C(N[C@@H](CO)c1nc(-c2ccc(C(F)(F)F)cc2)no1)c1ccccc1` [Compound 130, (S)-N-(2-hydroxy-1-(3-(4-(trifluoro-methyl)phenyl)-1,2,4-oxadiazol-5-yl)ethyl)benzamide], the inhibition at 5 µM in data set [1] (@5 μM, read-out: ThT Inhibitory activity (% inhibition)) worked out at 67%. Further, the inhibition at 25 µM in data set [1] (setting [3]) is 85%; in data set [1] (setting [2]) it was more than 80%.
Consider `O=C(N[C@@H](CO)c1nc(-c2ccc(C(F)(F)F)cc2)no1)c1ccc2ccccc2c1` [Compound 202, N-[(1S)-2-hydroxy-1-{3-[4-(trifluoromethyl)phenyl]-1,2,4-oxadiazol-5-yl}ethyl]naphthalene-2-carboxamide], for which the inhibition at 25 µM in data set [1] (setting [2]) is 40 to 80%.
As to `OC(Cc1c[nH]c2ccccc12)c1nc(-c2ccc(OC(F)(F)F)cc2)no1` (centres unmarked) [Compound 101, 2-(1H-indol-3-yl)-1-{3-[4-(trifluoromethoxy)phenyl]-1,2,4-oxadiazol-5-yl}ethan-1-ol], the values for the inhibition at 25 µM in data set [1] (setting [3]) and in data set [1] (setting [2]) were 87% and more than 80%, respectively.
